# Source: patent US11998481B2, “Methods and compositions for iontophoretic drug delivery to the eye” (University of Florida Research Foundation, Inc., priority 2018, dated 2024)
# What was measured:
# Format in all cases: in vitro ADME, rabbit
# [1] = Ex vivo iontophoretic delivery of Nile Blue A dye through the cornea from a drug loaded contact lens (camera and confocal imaging)
# Excerpt: Materials: Mature cadaver rabbit eyes were purchased from Pel-Freez Biologicals (Rogers, AR). The Nile Blue A dye was purchased from Sigma-Aldrich (St. Louis, MO) with a 75% dye content. Electrode materials were either made from generic lead-free, silver bearing solder or was 3D printed with conductive PLA filament (Proto Pasta, Vancouver, WA). Cadaver rabbit eyes were fixed in Margo solution containing paraformaldehyde and glutaraldehyde purchased from Fisher Scientific (Hampton, NH). Soaking agents for lenses included phosphate buffered saline (PBS), 1 M HEPES, a HEPES buffer solution containing sodium chloride, calcium chloride, magnesium chloride, and potassium phosphate were all purchased from Fisher Scientific (Hampton, NH). Commercial contact lenses Acuvue Oasys (14 mm diameter, 8.4 mm base curve, 0.0 power) were used in the study.
# Lens Preparation: Contact lenses were loaded by soaking in a Nile Blue A dye solution (1 mg/mL) in DI water for two days. To investigate the effect of buffer, lenses were soaked in either pure HEPES or HEPES buffer for 10 minutes prior to placement on the cadaver eyes. The molecular weight of HEPES is 238 allowing rapid uptake by the contact lenses. […]
# In order to quantify drug delivery, diffusion efficacy was measured by simultaneous comparison of four separate eyes, each corresponding to a different condition. […]
# [2] = Ex vivo iontophoretic delivery of Nile Blue to the posterior eye segment (confocal microscopy)
# Excerpt: (§1) Materials: Mature cadaver rabbit eyes were purchased from Pel-Freez Biologicals (Rogers, AR). The Nile Blue A dye (75% dye content) and Fluorescein were purchased from Sigma-Aldrich (St. Louis, MO). Electrode materials were made 3D printed with conductive PLA filament (Proto Pasta, Vancouver, WA). Cadaver rabbit eyes were fixed in Margo solution containing paraformaldehyde and glutaraldehyde purchased from Fisher Scientific (Hampton, NH). Soaking agents for lenses included phosphate buffered saline (PBS) or a HEPES solution purchased from Fisher Scientific (Hampton, NH). Commercial contact lenses Acuvue Oasys (14 mm diameter, 8.4 mm base curve, 0.0 power) were used in the study.
# (§2) Lens Preparation: Contact lenses were loaded by soaking in a 1 mg/mL Nile Blue solution in PBS or in a 0.01 mg/mL fluorescein solution in HEPES overnight. Lenses were loaded overnight in an enclosed space to prevent photobleaching of any species. […] Both species have low molecular weights and therefore have rapid uptakes into the lenses.
# Application of Electric Field: Loaded contact lenses were placed at the periphery of the cornea, on the sclera, and the two electrodes were placed over the lenses. Electrodes were attached to a power source that was set to the desired current (FIG. 8). A syringe pump was configured to gently apply a drop of PBS (≈30 μL) every 30 seconds on to the cornea and would flow to the lenses, providing a thin film to keep them hydrated. The application of PBS also served as an approximate mimic of the in vivo tear film. The submersion of the lens was also crucial to ensure that if any bubbling from electrochemically generated gases were to occur, it would be easily visible. The field was applied for the desired duration and then the power source and lenses were removed. Experiments were conducted with the lenses soaked in PBS for the anode component and HEPES for the cathode. The Nile Blue and fluorescein experiments were each conducted with three different combinations of time and current. […]
# [3] = Ex vivo iontophoretic delivery of fluorescein to the posterior eye segment, quantified in the vitreous by fluorometer; conditions: for Flux (time averaged): calculated from final concentration in the vitreous; for Concentration in Vitreous: lens loaded with 0.01 mg/mL fluorescein in HEPES; for electrophoretic velocity from the data of Table 3: order of magnitude
# Excerpt: as §1, §2
# Application of Electric Field: Loaded contact lenses were placed at the periphery of the cornea, on the sclera, and the two electrodes were placed over the lenses. Electrodes were attached to a power source that was set to the desired current (FIG. 8). A syringe pump was configured to gently apply a drop of PBS (≈30 μL) every 30 seconds on to the cornea and would flow to the lenses, providing a thin film to keep them hydrated. The application of PBS also served as an approximate mimic of the in vivo tear film. The submersion of the lens was also crucial to ensure that if any bubbling from electrochemically generated gases were to occur, it would be easily visible. The field was applied for the desired duration and then the power source and lenses were removed. Experiments were conducted with the lenses soaked in PBS for the anode component and HEPES for the cathode. The Nile Blue and fluorescein experiments were each conducted with three different combinations of time and current.
# Quantification of Fluorescein Delivery: Delivery of fluorescein to the posterior eye segment was conducted four times for each variation of time and current. After completion, eyes were submerged in PBS for 1 hour and then refrozen. Once the eyes had completely solidified, the vitreous was removed by cutting away the rest of the eye. All samples of same time and current were combined and thawed. After thawing was complete, the vitreous was put through a 0.22 μm filter to ensure no excessive tissue was present in the system. Relative fluorescent intensity of each sample was found using a Quantech fluorometer and the corresponding concentrations of fluorescein was found through a calibration curve.
# Efficient transport of fluorescein to the vitreous: The fluorescein was loaded into lenses in a HEPES solution, which alleviated the damage done to the eye during the generation of caustic species from the electrochemical reactions. In order to quantify the delivery of fluorescein to the posterior eye segment, experiments were conducted at three different combinations or time and current and were compared to a control. The electric fields chosen were 0.25 mA (high current) and 0.125 mA (low current) for either 1 hour (short time) or 2 hours (long time). After the application of the electric field to the sclera, the vitreous was harvested and fluorescence was quantified using a fluorometer. The concentrations of fluorescein were found using a calibration curve for the relative fluorescence (Table 3). Additionally in FIGS. 11A-11B, the delivery and localization of fluorescein can be seen in the posterior eye segment. Fluorescence was produced using a UV light source and observed thorough an orange filter. The regions near the cathode component show localizations of fluorescein at the exterior and interior surfaces. The final concentration in the vitreous was also used to calculate the time averaged flux of the fluorescein and the electrophoretic mobility. […]
"Nile Blue A dye present throughout the cornea (confocal) ([1]; diffusion only, no electric field, from contact lens or standing solution, after 1 hr)","Nile Blue A dye delivered to the cornea (ROI analysis) ([1]; lenses loaded in DI water, all current and time conditions (0.25 or 0.125 mA, 30 or 60 min))","distribution of Nile Blue A dye across sclera, choroid, and retina ([2]; all applied currents and times)","transport of Nile Blue A dye across sclera, choroid, and retina (confocal) ([2]; low current and short time duration)",Flux (time averaged) ([3]; 1 hr 0.125 mA),Concentration in Vitreous ([3]; 1 hr 0.125 mA),Flux (time averaged) ([3]; 1 hr 0.250 mA),Concentration in Vitreous ([3]; 1 hr 0.250 mA),Flux (time averaged) ([3]; 2 hr 0.125 mA),Concentration in Vitreous ([3]; 2 hr 0.125 mA),electrophoretic velocity from the data of Table 3 ([3]; high current (0.25 mA) experiments),electrophoretic velocity from the data of Table 3 ([3]; low current (0.125 mA) experiments),Compound,"damage to the posterior eye segment (confocal imaging) ([2]; hybrid lenses: PBS at anode, HEPES at cathode)"
very minor amounts,significant quantities,uniform,sufficient transport,–,–,–,–,–,–,–,–,CC[N+](CC)=c1ccc2nc3c(cc(N)c4ccccc43)oc-2c1 [Nile Blue A dye],no apparent damage
–,–,–,–,7.18 kg/m^2s [×10^7],33.8 ng/mL,14.93 kg/m^2s [×10^7],70.4 ng/mL,6.46 kg/m^2s [×10^7],60.9 ng/mL,~2.6 μm/s,~1.3 μm/s,O=C1OC2(c3ccc(O)cc3Oc3cc(O)ccc32)c2ccccc21 [Fluorescein],–
